Values of other authors, collected in patent US12091391B2, “Reagents and methods for bioorthogonal labeling of biomolecules in living cells” (Oregon State University, priority 2015, dated 2024).

half-life in vivo: 16.1 h
Substance: cyclopropane-fused trans cyclooctene [sTCO]
